Laboratory results published in ChEMBL document CHEMBL5247655, “Simplified Derivatives of Tetrandrine as Potent and Specific P-gp Inhibitors to Reverse Multidrug Resistance in Cancer Chemotherapy” (J Med Chem, 2023).
In brackets after ≈: the same amount, converted by molar mass. Activity calls are given as the source filed them. The rule behind the calls is not given here.

How the values were obtained:
[1] = Cmax in Sprague-Dawley rat at 3 mg/kg, iv measured upto 24 hrs by UPLC/MS/MS analysis; format: ADME, organism-based; design: time < 24 hrs, dose 3 mg/kg, route iv; conditions: in vivo
[2] = target: T1, ATP-dependent translocase ABCB1 (Homo sapiens, UniProt P08183); test: Inhibition of P-gp efflux in vincristine resistant human Eca-109 cells assessed as effect on accumulation of rhodamine123; format: cell-based
ECa-109 cell line [3] = test: Induction of apoptosis in vincristine resistant human Eca-109 cells assessed as late apoptotic cells at 5 uM incubated for 24 hrs in presence of vincristine by AnnexinV-FITC/PI staining based flow cytometric analysis (reference value: 6.01%); format: functional
ECa-109 cell line [4] = test: Induction of apoptosis in vincristine resistant human Eca-109 cells assessed as early apoptotic cells at 2.5 uM incubated for 24 hrs in presence of vincristine by AnnexinV-FITC/PI staining based flow cytometric analysis (reference value: 4.43%); format: functional
[5] = Cytotoxicity against human HK-2 cells incubated for 48 hrs by CCK-8 method; format: toxicity, cell-based
ECa-109 cell line [6] = test: Induction of apoptosis in vincristine resistant human Eca-109 cells assessed as viable cells at 2.5 uM incubated for 24 hrs in presence of vincristine by AnnexinV-FITC/PI staining based flow cytometric analysis (reference value: 89.2%); format: functional; conditions: read-out: Activity
[7] = Solubility of the compound in water at 25 degree C by shake flask method based UV-spectrophotometric method; format: physicochemical
[8] = AUMC (0 to infinity) in Sprague-Dawley rat at 3 mg/kg, iv measured upto 24 hrs by UPLC/MS/MS analysis; format: ADME, organism-based; conditions: in vivo
[9] = Half life in Sprague-Dawley rat at 3 mg/kg, iv measured upto 24 hrs by UPLC/MS/MS analysis; format: ADME, organism-based; conditions: in vivo
[10] = Apparent volume of distribution during terminal phase in Sprague-Dawley rat at 30 mg/kg, po measured upto 24 hrs by UPLC/MS/MS analysis; format: ADME, organism-based; conditions: in vivo, read-out: Vz/F
ECa-109 cell line [11] = test: Induction of apoptosis in vincristine resistant human Eca-109 cells assessed as viable cells at 1 uM incubated for 24 hrs in presence of vincristine by AnnexinV-FITC/PI staining based flow cytometric analysis (reference value: 89.2%); format: functional; conditions: read-out: Activity
ECa-109 cell line [12] = test: Synergistic antitumor activity against in vincristine resistant p-gp overexpressing human Eca-109 cells xenografted in nude mouse assessed as increase in apoptosis at 30 mg/kg, IG administered every two days for 21 days in presence of vincristine by TUNEL analysis; format: functional, organism-based; conditions: time 21.0 day
ECa-109 cell line [13] = test: Synergistic antitumor activity against in vincristine resistant p-gp overexpressing human Eca-109 cells xenografted in nude mouse assessed as inhibition of tumor growth rate at 30 mg/kg, IG administered every two days for 21 days in presence of vincristine relative to control; format: functional; design: scale not given: the % may be the effect or the level left; conditions: time 21 day
ECa-109 cell line [14] = test: Induction of apoptosis in vincristine resistant human Eca-109 cells assessed as late apoptotic cells at 1 uM incubated for 24 hrs in presence of vincristine by AnnexinV-FITC/PI staining based flow cytometric analysis (reference value: 6.01%); format: functional
[15] = Oral bioavailability in Sprague-Dawley rat at 30 mg/kg measured upto 24 hrs by UPLC/MS/MS analysis; format: ADME, organism-based; conditions: in vivo
[16] = target: Multidrug resistance-associated protein 1 (Homo sapiens, UniProt P33527); test: Binding affinity to MRP1 in vincristine resistant human Eca-109 cells assessed as stabilization of protein at 100 uM incubated for 30 mins by thermal shift assay; format: cell-based; conditions: eca-109, 0.5 h
ECa-109 cell line [17] = test: Cytotoxicity against vincristine resistant human Eca-109 cells incubated for 48 hrs by CCK-8 method; format: functional, cell-based; conditions: ECa-109, 48 h
[18] = Apparent oral clearance in Sprague-Dawley rat at 3 mg/kg, iv measured upto 24 hrs by UPLC/MS/MS analysis; format: ADME, organism-based; conditions: in vivo
[19] = Hepatotoxicity in nude mouse at 30 mg/kg, IG administered every two days for 21 days in presence of vincristine by H and E staining based analysis; format: toxicity, organism-based; conditions: in vivo, po, 504 h, time 21 day
ECa-109 cell line [20] = test: Cytotoxicity against vincristine resistant human Eca-109 cells incubated for 48 hrs by CCK-8 method relative to control; format: functional; design: concentration or dose not given beside the values
[21] = Cmax in Sprague-Dawley rat at 30 mg/kg, po measured upto 24 hrs by UPLC/MS/MS analysis; format: ADME, organism-based; design: time < 24 hrs, dose 30 mg/kg, route po; conditions: in vivo
[22] = target: T1, ATP-dependent translocase ABCB1; test: Inhibition of P-gp efflux in vincristine resistant human Eca-109 cells assessed as effect on accumulation of calcein-AM; format: cell-based
ECa-109 cell line [23] = test: Induction of apoptosis in vincristine resistant human Eca-109 cells assessed as viable cells at 5 uM incubated for 24 hrs by AnnexinV-FITC/PI staining based flow cytometric analysis (reference value: 90.3%); format: functional; conditions: read-out: Activity
ECa-109 cell line [24] = test: Induction of apoptosis in vincristine resistant human Eca-109 cells assessed as necrotic cells at 5 uM incubated for 24 hrs by AnnexinV-FITC/PI staining based flow cytometric analysis (reference value: 0.25%); format: functional
[25] = target: T1, ATP-dependent translocase ABCB1; test: Inhibition of P-gp efflux in vincristine resistant human Eca-109 cells assessed as increase in intracellular accumulation of rhodamine123 at 1 to 5 uM incubated for 1 hr by flow cytometry analysis; format: cell-based; conditions: eca-109, 1 h, dose 1-5 µM
ECa-109 cell line [26] = test: Reversal of vincristine-resistance in human Eca-109 cells assessed as fold reversal by measuring cell viability at 2.5 uM incubated for 48 hrs by CCK-8 method relative to vincristine alone; format: functional
[27] = Cytotoxicity against human GES1 cells incubated for 48 hrs by CCK-8 method; format: toxicity, cell-based
[28] = target: T1, ATP-dependent translocase ABCB1; test: Inhibition of P-gp efflux in vincristine resistant human Eca-109 cells assessed as increase in rhodamine 123 fluorescence intensity incubated for 3 hrs; format: cell-based; conditions: eca-109, 3 h, dose 0-45 µM
[29] = target: T1, ATP-dependent translocase ABCB1; test: Inhibition of P-gp efflux in vincristine resistant human Eca-109 cells assessed as effect on accumulation of H33342; format: cell-based
[30] = target: T1, ATP-dependent translocase ABCB1; test: Inhibition of P-gp efflux in vincristine resistant human Eca-109 cells assessed as increase in rhodamine 123 fluorescence intensity at 30 uM; format: cell-based; conditions: eca-109, 30 µM, TDE = time-dependent effect, time 0-5 hrs
ECa-109 cell line [31] = test: Induction of apoptosis in vincristine resistant human Eca-109 cells assessed as viable cells at 5 uM incubated for 24 hrs in presence of vincristine by AnnexinV-FITC/PI staining based flow cytometric analysis (reference value: 89.2%); format: functional; conditions: read-out: Activity
[32] = Apparent volume of distribution during terminal phase in Sprague-Dawley rat at 3 mg/kg, iv measured upto 24 hrs by UPLC/MS/MS analysis; format: ADME, organism-based; conditions: in vivo
[33] = AUC (0 to infinity) in Sprague-Dawley rat at 3 mg/kg, iv measured upto 24 hrs by UPLC/MS/MS analysis; format: ADME, organism-based; design: time < 24 hrs, dose 3 mg/kg, route iv; conditions: in vivo
[34] = Inhibition of clone formation in vincristine resistant human Eca-109 cells at 2 uM incubated for 48 hrs by crystal violet staining based analysis; format: functional
ECa-109 cell line [35] = test: Cytotoxicity against human Eca-109 cells incubated for 48 hrs by CCK-8 method; format: functional, cell-based; conditions: ECa-109, 48 h
ECa-109 cell line [36] = test: Induction of apoptosis in vincristine resistant human Eca-109 cells assessed as late apoptotic cells at 5 uM incubated for 24 hrs by AnnexinV-FITC/PI staining based flow cytometric analysis (reference value: 7.19%); format: functional

T1 sequence (P08183 whole entry): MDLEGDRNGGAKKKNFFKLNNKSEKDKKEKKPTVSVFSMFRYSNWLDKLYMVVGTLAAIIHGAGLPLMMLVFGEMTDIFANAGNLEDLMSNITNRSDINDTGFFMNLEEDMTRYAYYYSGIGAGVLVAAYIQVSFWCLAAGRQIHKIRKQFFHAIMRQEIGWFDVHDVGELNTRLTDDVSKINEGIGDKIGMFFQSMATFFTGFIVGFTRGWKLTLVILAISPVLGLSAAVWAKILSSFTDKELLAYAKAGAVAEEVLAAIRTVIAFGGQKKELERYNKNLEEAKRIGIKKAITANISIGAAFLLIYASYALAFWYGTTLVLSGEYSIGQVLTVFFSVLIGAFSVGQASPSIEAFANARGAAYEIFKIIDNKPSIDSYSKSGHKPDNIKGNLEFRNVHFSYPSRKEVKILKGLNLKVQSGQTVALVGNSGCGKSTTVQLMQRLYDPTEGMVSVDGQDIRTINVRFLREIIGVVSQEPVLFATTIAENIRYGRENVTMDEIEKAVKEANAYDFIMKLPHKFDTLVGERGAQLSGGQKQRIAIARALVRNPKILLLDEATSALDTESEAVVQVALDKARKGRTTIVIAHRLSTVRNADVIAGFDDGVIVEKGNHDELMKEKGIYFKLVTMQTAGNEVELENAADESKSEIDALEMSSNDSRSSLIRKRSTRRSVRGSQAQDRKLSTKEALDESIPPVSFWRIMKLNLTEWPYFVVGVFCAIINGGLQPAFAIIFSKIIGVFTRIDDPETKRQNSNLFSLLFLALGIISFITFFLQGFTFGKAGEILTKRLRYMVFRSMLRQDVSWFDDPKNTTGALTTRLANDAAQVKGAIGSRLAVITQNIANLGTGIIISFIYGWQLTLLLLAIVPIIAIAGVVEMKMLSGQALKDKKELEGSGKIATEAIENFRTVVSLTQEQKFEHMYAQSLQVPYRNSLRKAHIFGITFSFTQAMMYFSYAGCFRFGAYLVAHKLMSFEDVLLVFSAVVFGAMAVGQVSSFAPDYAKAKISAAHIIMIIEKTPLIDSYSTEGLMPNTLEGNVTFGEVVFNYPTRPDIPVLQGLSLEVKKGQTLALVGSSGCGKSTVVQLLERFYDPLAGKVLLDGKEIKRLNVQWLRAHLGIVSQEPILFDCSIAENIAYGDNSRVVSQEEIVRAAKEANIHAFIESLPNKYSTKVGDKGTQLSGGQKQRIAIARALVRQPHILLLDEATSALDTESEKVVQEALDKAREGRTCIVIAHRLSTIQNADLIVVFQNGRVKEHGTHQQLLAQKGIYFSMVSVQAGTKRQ
Sequence of Multidrug resistance-associated protein 1 (P33527 whole entry): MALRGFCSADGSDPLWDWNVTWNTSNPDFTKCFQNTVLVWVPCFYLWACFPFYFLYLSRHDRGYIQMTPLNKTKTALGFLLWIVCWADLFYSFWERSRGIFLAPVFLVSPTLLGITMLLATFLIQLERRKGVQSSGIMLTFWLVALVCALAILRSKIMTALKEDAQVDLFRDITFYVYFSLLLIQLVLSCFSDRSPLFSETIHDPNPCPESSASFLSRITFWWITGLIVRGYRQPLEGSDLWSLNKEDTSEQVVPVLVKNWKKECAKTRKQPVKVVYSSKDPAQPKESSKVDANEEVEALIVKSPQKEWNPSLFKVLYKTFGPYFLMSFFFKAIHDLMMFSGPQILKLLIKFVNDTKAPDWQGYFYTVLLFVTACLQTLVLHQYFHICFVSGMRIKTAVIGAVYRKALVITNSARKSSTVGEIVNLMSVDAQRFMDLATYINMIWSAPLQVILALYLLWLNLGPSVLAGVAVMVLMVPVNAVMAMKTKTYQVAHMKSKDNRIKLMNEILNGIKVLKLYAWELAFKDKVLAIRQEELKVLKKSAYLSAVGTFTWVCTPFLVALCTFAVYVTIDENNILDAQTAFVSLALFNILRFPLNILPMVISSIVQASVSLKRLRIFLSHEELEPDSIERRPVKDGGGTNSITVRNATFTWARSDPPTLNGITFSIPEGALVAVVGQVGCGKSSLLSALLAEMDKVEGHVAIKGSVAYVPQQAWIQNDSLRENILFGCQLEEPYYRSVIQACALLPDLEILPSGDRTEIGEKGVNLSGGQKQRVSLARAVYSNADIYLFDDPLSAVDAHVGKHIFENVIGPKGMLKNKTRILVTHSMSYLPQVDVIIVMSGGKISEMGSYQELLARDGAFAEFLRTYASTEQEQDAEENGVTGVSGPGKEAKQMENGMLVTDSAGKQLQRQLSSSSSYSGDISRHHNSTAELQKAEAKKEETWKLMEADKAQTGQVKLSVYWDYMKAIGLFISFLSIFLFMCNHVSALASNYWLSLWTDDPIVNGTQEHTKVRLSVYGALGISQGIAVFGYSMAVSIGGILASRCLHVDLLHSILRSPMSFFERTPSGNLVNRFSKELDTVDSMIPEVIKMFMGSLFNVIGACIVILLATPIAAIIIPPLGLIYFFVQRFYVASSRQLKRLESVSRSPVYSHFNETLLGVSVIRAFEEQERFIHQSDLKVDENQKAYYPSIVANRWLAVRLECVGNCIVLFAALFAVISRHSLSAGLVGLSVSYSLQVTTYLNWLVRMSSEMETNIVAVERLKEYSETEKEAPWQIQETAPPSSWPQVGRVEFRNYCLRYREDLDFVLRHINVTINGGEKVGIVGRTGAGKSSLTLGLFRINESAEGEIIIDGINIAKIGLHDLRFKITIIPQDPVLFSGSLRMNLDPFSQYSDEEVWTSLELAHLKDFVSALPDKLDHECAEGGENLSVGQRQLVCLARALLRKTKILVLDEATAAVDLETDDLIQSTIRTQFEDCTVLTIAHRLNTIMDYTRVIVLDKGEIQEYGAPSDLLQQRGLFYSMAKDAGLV

SMILES: COc1cc2c(cc1OC)C(Cc1ccc(OC)c(OCc3ccccc3)c1)N(C)CC2 (stereo unspecified)
- Cmax [1]: 1570 ng/mL
- inhibition (INH) [2]: Active
- Activity (ECa-109 cell line [3]): 9.81%
- Activity (ECa-109 cell line [4]): 17.8%
- IC50 at 48 h [5]: > 50 µM
- viability at 2.5 µM (ECa-109 cell line [6]): 70.5%
- solubility thermodynamic [7]: 68 µg/mL (≈ 157 µM)
- AUMC [8]: 7391.35 ng/mL.hr^2
- half-life [9]: 506 min
- Vd/F [10]: 111 L/kg
- viability at 1 µM (ECa-109 cell line [11]): 76.1%
- Activity (ECa-109 cell line [12]): Active
- Activity (ECa-109 cell line [13]): 79.13%
- Activity (ECa-109 cell line [14]): 8.64%
- bioavailability [15]: 7.65%
- Activity [16]: Not Active
- IC50 (ECa-109 cell line [17]): > 100 µM
- CL/F [18]: 18.3 mL/min/kg
- Activity [19]: Non-Toxic
- Activity (ECa-109 cell line [20]): 95.3%
- Cmax [21]: 637 ng/mL
- inhibition (INH) [22]: Active
- viability at 5 µM (ECa-109 cell line [23]): 90.8%
- Activity (ECa-109 cell line [24]): 0.14%
- inhibition (INH) [25]: Active
- fold change (FC) (ECa-109 cell line [26]): 103.4
- IC50 at 48 h [27]: > 50 µM
- inhibition (INH) [28]: Dose-Dependent Effect
- inhibition (INH) [29]: Active
- inhibition (INH) [30]: Tde
- viability at 5 µM (ECa-109 cell line [31]): 64.5%
- Vz/F [32]: 12.84 L/kg
- AUC(0-inf) [33]: 2740 ng·h/mL
- inhibition at 2 µM [34]: 100%
- IC50 (ECa-109 cell line [35]): > 100 µM
- Activity (ECa-109 cell line [36]): 6.58%
